Data published in patent US20060111331A1, “Gave10 agonists for treating inflammation” (Aventis Pharmaceuticals Inc., priority 2004, published 2006).

Experiments:
Assay type in all cases: cell-based
GAVE10 [1] = molecular target: T1, GAVE10 (Homo sapiens, UniProt Q8TDU6); assay: cAMP assay, PSC cells transfected with GAVE10; conditions: PSC cells alone vs PSC cells transfected with GAVE10; FIG. 2
T1 construct: expressed in transfected cells; host or cells: PSC cells
T1 sequence (Q8TDU6 1-330): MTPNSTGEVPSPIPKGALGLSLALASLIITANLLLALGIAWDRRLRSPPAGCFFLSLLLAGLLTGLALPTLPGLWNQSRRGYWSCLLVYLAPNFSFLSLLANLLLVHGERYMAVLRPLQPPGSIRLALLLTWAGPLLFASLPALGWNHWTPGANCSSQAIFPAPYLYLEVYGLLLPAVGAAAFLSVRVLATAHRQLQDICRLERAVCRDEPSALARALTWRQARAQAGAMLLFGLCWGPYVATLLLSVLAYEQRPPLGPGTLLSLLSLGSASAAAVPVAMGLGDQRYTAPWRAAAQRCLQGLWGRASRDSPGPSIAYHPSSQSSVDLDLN
Procedure: Compounds A, B, and C and LCA were incubated, respectively, with PSC cells alone and PSC cells transfected with GAVE 10, and the cells were then assayed in a cAMP assay.

GAVE10 [2] = molecular target: T1, GAVE10; assay: FLIPR assay, PSC cells transfected with GAVE10 (calcium signaling); conditions: PSC cells alone vs PSC cells transfected with GAVE10; FIG. 1
Procedure: Compounds A, B, and C and lithocholic acid (LCA) were incubated, respectively, with PSC cells alone and PSC cells transfected with GAVE10, and the cells were then assayed in a FLIPR® assay.
To screen for agonists of human GAVE10, hGAVE10 was coupled artificially to a Gq mechanism. Activation of the Gq mechanism stimulates the release of Ca^2+ from sarcoplasmic reticulum vesicles within the cell. The Ca^2+ was released into the cytoplasm where it can be detected using Ca^2+ chelating dyes. A Fluorometric Imaging Plate Reader (i.e., a FLIPR® apparatus, Molecular Devices) was used to monitor any resulting changes in fluorescence. The activity of an agonist was reflected by any increase in fluorescence.
CHO-KI cells expressing hGAVE10 were pre-engineered to express an indiscriminate form of Gq protein (G016). To prepare such cells, Gα16-coupled CHO cells were obtained commercially (Molecular Devices LIVEWARE™ cells, Catalog No. RD-HGAI6) and the protocol in Example 2 followed to facilitate expression of hGAVE10 in those cells. The cells were maintained in log phase of growth at 37° C. and 5% CO2 in F12 Ham's media (Gibco/BRL, Catalog No. 11765-054) containing 10% fetal bovine serum, 100 IU/ml penicillin (Gibco/BRL, Catalog No. 15140-148), 100 μg/ml streptomycin (Catalog No. 15140-148, Gibco/BRL), 400 μg/ml genetecin (G418) (Gibco/BRL, Catalog No. 10131-035) and 200 μg/ml zeocin (Invitrogen, Catalog No. R250-05). […]
The CCD camera (Princeton Instruments) of the FLIPR® II (Molecular Devices) instrument was set at an f-stop of 2.0 and an exposure of 0.4 seconds. […] Changes in fluorescence were measured for 10 seconds prior to compound addition. After the addition of the compound, fluorescence was measured every second for the first minute followed by exposures taken every six seconds for a total experimental analysis time of three minutes. […] The maximum fluorescence changes for the first 80 scans were recorded as a measure of agonist activity and compared to the maximum fluorescence change induced by 10 μM ATP (Sigma A9062).

[3] = tested on: TNFα release in mouse macrophages; assay: TNFα release assay in mouse macrophages; conditions: FIG. 3
[4] = tested on: IL-6 production in mouse macrophages; assay: IL-6 production in mouse macrophages; conditions: male and female, effect more pronounced in male, FIG. 4

| Compound | increase of intracellular cAMP via GAVE10 activation (GAVE10 [1]) | activation of calcium-signaling pathways via GAVE10 (FLIPR) (GAVE10 [2]) | inhibition of TNFα release [3] | inhibition of IL-6 production [4] |
| --- | --- | --- | --- | --- |
| CC(CCC(=O)NCC[N+](C)(C)C)C1CCC2C3CCC4CC(O)CCC4(C)C3CC(O)C12C (stereo not drawn) [Compound A] | activate GAVE10 to increase intracellular cAMP | bind to GAVE10 to activate calcium-signaling pathways | inhibited TNFα release | – |
| CC(CCC(=O)N1CCN(C)CC1)C1CCC2C3CCC4CC(O)CCC4(C)C3CC(O)C12C (stereo not drawn) [Compound B] | activate GAVE10 to increase intracellular cAMP | bind to GAVE10 to activate calcium-signaling pathways | inhibited TNFα release | – |
| CC(CCC(=O)NCCN1CCOCC1)C1CCC2C3CCC4CC(O)CCC4(C)C3CC(O)C12C (stereo not drawn) [Compound C] | activate GAVE10 to increase intracellular cAMP | bind to GAVE10 to activate calcium-signaling pathways | – | – |
| C[C@H](CCC(=O)O)[C@H]1CC[C@H]2[C@@H]3CC[C@@H]4C[C@H](O)CC[C@]4(C)[C@H]3C[C@H](O)[C@]12C [DCA] | – | – | – | inhibit IL-6 production |
